According to US10076533B2, “Acyclic nucleoside phosphonate diesters” (The Regents of the University of California, priority 2013, dated 2018):
Like-named read-outs stand apart in the source and are kept apart here.

Columns and labels:
[1] = tested on: HPV-11; assay: HPV-11 origin replication in HEK 293 cells, qPCR; format: cell-based; conditions: for EC90: read-out: EC90 (concentration required to reduce viral replication by 90%)
Procedure: (§1) An origin-containing plasmid was co-transfected with HPV-11 E1 and E2 protein expression vectors into HEK 293 cells. At 4 hr post-transfection, cells were treated with compound dilutions and the cells were incubated for 48 hr. Replication of the virus origin was detected with DpnI and exonuclease III to remove unreplicated input bacterial plasmid DNA. Remaining replicated DNA was quantified by qPCR. Toxicity was determined by trypan blue exclusion.

[2] = tested on: MT-2 cells; assay: Cytotoxicity in MT-2 cells, flow cytometry cell counts and viability; format: cell-based, human; conditions: 72 hrs, read-out: CC50, 50% Cytotoxic concentration MT2 cells T cell leukemia
Procedure: (§2) MT-2 cells were incubated with drug for 72 hrs and harvested. Flow count beads (Beckman Coulter, Miami, Fla.) were added to the cell suspension followed by propidium iodide staining and analysis using flow cytometer and the 50% cytotoxic concentration (CC50) was calculated from the cell counts and viability.

[3] = Cytotoxicity in HFF cells in parallel to cytomegalovirus assay; conditions: human, […]
[4] = tested on: HPV-16; assay: HPV-16 origin replication in HEK 293 cells, qPCR; format: cell-based; conditions: for Selectivity Index: HPV-16, HEK 293 cells
Procedure: as §1, with “HPV-16” for “HPV-11”

[5] = African green monkey, uninfected COS7 cells
[6] = Toxicity in HEK 293 cells by trypan blue exclusion (HPV-11 example); format: cell-based; conditions: human
Procedure: as §1

[7] = tested on: AD169 strain of human cytomegalovirus; assay: Antiviral effect in HFF cells infected with human cytomegalovirus (AD169)
[8] = Viability of PBMC by XTT reduction; conditions: human
[9] = Cytotoxicity in MT-2 cells, flow cytometry cell counts and viability; format: cell-based, human; conditions: human; MT-2 cells, 72 hrs
Procedure: as §2

[10] = Cytotoxicity in 2.2.15 cells by neutral red uptake; conditions: human
[11] = tested on: HIV-1LAI; assay: HIV antiviral assay in MT-2 cells, p24 reduction; conditions: Human immunodeficiency virus 1, MT2, 96 h
[12] = Toxicity in HEK 293 cells by trypan blue exclusion (HPV-16 example); format: cell-based; conditions: human
Procedure: as §1, with “HPV-16” for “HPV-11”

[13] = tested on: HIV-192US727; assay: Anti-HIV assay in human PBMC, supernatant reverse transcriptase activity; conditions: for Selectivity Index: HIV-192US727, human PBMC
[14] = tested on: BK virus (Gardner strain); assay: Antiviral effect in HFF cells infected with BK virus (Gardner strain), qPCR
[15] = human
[16] = tested on: Hepatitis B virus; assay: HBV replication in 2.2.15 cells, HBV DNA blot hybridization; conditions: for EC50: Hepatitis B virus, 168 h; for Selectivity Index: hepatitis B virus, 2.2.15 cells
[17] = Cytotoxicity in HFF cells in parallel to HSV-1 assay; conditions: human, […]
[18] = tested on: MAD-1 strain of JC virus; assay: Antiviral effect in JC virus (MAD-1) infected COS7 cells, qPCR
[19] = tested on: Human peripheral blood monocyte (PBMC); assay: Viability of PBMC by XTT reduction; conditions: human PBMC, XTT reduction
[20] = Cytotoxicity in HFF cells in parallel to HSV-2 assay; conditions: human, […]
[21] = Effect of oral compounds on body weight in Balb-c mice; format: in vivo; conditions: for body weight Day 0: before dosing; for lost % of body weight: day 6 versus day zero
Procedure: Compounds were administered at the indicated doses by oral gavage daily for 5 days. Weights measured before and on day 6 after 5 doses.

[22] = HPV-11 origin replication in HEK 293 cells, 48 hr, qPCR
[23] = Human immunodeficiency virus 1, PBMC, 168 h

Structure (SMILES): CCCCCCCCCCCCCCCCCCOCCOP(=O)(COCCn1cnc2c(=O)[nH]c(N)nc21)OCc1ccccc1 (single isomer, unassigned) [Compound 1a, benzyl octadecyloxyethyl 9-(2-phosphonomethoxyethyl)guanine]
- EC90 [1, 22]: 1060 nM
- CC50 [2]: < 10 nM

Structure (SMILES): CCCCCCCCCCCCCCCCCCOCCOP(=O)(COCCn1cnc2c(=O)[nH]c(N)nc21)OCc1ccccc1 (single isomer, unassigned) [Compound 1b, benzyl octadecyloxyethyl 9-(2-phosphonomethoxyethyl)guanine]
- EC90 [1, 22]: 1160 nM
- CC50 [2]: < 10 nM

Structure (SMILES): CCCCCCCCCCCCCCCCCCOCCOP(=O)(COCCn1cnc2c(N)ncnc21)OCc1ccccc1 (centres unmarked) [Compound 2, benzyl octadecyloxyethyl 9-(2-phosphonomethoxyethyl)adenine]
- CC50 at 14 days [3]: 18.3 µM
- EC50 ([4]; HEK293, HPV-16 origin replication in HEK 293 cells, 48 hr, qPCR, read-out: EC50): 0.99 µM
- Selectivity Index [4]: >10.1
- CC50 at 7 days [5]: 10.6 µM
- CC50 at 48 h [6]: > 100 µM
- EC50 ([7]; Human betaherpesvirus 5, AD169, HFF, 336 h): 110 nM
- Selectivity Index ([7]; human cytomegalovirus (AD169), HFF cells): 166
- EC50 ([1]; HEK293, HPV-11 origin replication in HEK 293 cells, 48 hr, qPCR): 270 nM
- Selectivity Index ([1]; HPV-11, HEK 293 cells): >130
- CC50 at 7 days ([8]; PHA-stimulated human PBMCs): 11 µM
- CC50 at 72 h [9]: < 10 nM
- CC50 ([2]; Homo sapiens, MT2): < 10 nM
- CC50 at 7 days [10]: > 100 µM
- EC50 [11]: < 0.01 nM
- CC50 at 48 h [12]: > 10 µM
- Selectivity Index [13]: >1100
- EC50 [13, 23]: < 10 nM
- Selectivity Index ([14]; BK virus (Gardner strain), HFF cells): >238
- EC50 ([14]; Betapolyomavirus hominis, HFF, 336 h): < 30 nM
- CC50 at 14 days [15]: 7.14 µM
- EC50 [16]: 0.88 µM
- Selectivity Index [16]: >113
- CC50 at 3 days [17]: 16.6 µM
- EC50 ([18]; JC polyomavirus, COS-7, 168 h): > 4 µM
- Selectivity Index ([18]; JC virus (MAD-1), COS7 cells): <2.7

Structure (SMILES): CCCCCCCCCCCCCCCCCCOCCOP(=O)(COCCn1cnc2c(=O)[nH]c(N)nc21)Oc1ccccc1 (centres unmarked) [Compound 19, phenyl octadecyloxyethyl 9-(2-phosphonomethoxyethyl)guanine]
- EC50 ([4]; HEK293, 48 h): 5.27 µM
- Selectivity Index [4]: >1.9
- CC50 at 7 days [8]: 0.018 µM
- CC50 at 7 days [10]: > 100 µM
- CC50 at 48 h [12]: > 10 µM
- Selectivity Index [13]: >9.0
- EC50 [13, 23]: < 3 nM
- EC50 [16]: 43 µM
- Selectivity Index [16]: >2.33

Structure (SMILES): CCCCCCCCCCCCCCCCOCCCOP(=O)(COCCn1cnc2c(=O)[nH]c(N)nc21)Oc1ccccc1 (centres unmarked) [Compound 25, phenyl hexadecyloxypropyl 9-(2-phosphonomethoxyethyl)guanine]
- CC50 [19]: 250 nM
- EC50 ([13]; HIV-192US727 infected human PBMC, 7 days, supernatant reverse transcriptase activity): < 2 nM

Structure (SMILES): CCCCCCCCCCCCCCCCCCOCCOP(=O)(CO[C@H](C)Cn1cnc2c(=O)[nH]c(N)nc21)OCc1ccccc1 (stereo partly drawn) [Compound 73, benzyl octadecyloxyethyl 9-(R)-[(2-phosphonomethoxy)propyl]guanine]
- CC50 at 7 days ([8]; PHA-stimulated human PBMCs): 11.3 µM
- CC50 at 7 days [10]: 63 µM
- Selectivity Index [13]: >2260
- EC50 [13, 23]: < 5 nM
- EC50 [16]: 34 µM
- Selectivity Index [16]: 1.9

Structure (SMILES): CCCCCCCCCCCCCCCCCCOCCOP(=O)(CO[C@H](C)Cn1cnc2c(N)ncnc21)OCc1ccccc1 (stereo partly drawn) [Compound 74, benzyl octadecyloxyethyl 9-(R)-[(2-phosphonomethoxy)propyl]adenine]
- CC50 at 7 days ([8]; PHA-stimulated human PBMCs): 24.6 µM
- CC50 at 7 days [10]: 64 µM
- Selectivity Index [13]: >4920
- EC50 [13, 23]: < 5 nM
- EC50 [16]: 6.5 µM
- Selectivity Index [16]: 10

Structure (SMILES): CCCCCCCCCCCCCCCCCCOCCOP(=O)(CO[C@H](COC)Cn1cnc2c(N)ncnc21)OCc1ccccc1 (stereo partly drawn) [Compound 146, benzyl octadecyloxyethyl 9-(S)-[(3-methoxy-2-phosphonomethoxy)propyl]adenine]
- CC50 at 7 days ([8]; PHA-stimulated human PBMCs): 12.5 µM
- CC50 at 7 days [10]: > 100 µM
- Selectivity Index [13]: >312
- EC50 [13, 23]: < 40 nM
- EC50 [16]: 33 µM
- Selectivity Index [16]: >3.03

Structure (SMILES): CCCCCCCCCCCCCCCCCCOCCOP(=O)(CO[C@H](COC)Cn1cnc2c(N)ncnc21)Oc1ccccc1 (stereo partly drawn) [Compound 164, phenyl octadecyloxyethyl 9-(S)-[(3-methoxy-2-phosphonomethoxy)propyl]adenine]
- CC50 at 7 days [8]: 15 µM
- CC50 at 7 days [10]: > 100 µM
- Selectivity Index [13]: >37.5
- EC50 [13, 23]: < 400 nM
- EC50 [16]: 0.46 µM
- Selectivity Index [16]: >216

Structure (SMILES): CCCCCCCCCCCCCCCCCCOCCOP(=O)(CO[C@H](CO)Cn1ccc(=O)[nH]c1=O)OCc1ccccc1 (stereo partly drawn) [Compound 221, benzyl octadecyloxyethyl 9-(S)-[3-hydroxy-2-(phosphonomethoxy)propyl]uracil]
- CC50 at 3 days [20]: > 10 µM

Structure (SMILES): CCCCCCCCCCCCCCCCCCOCCOP(=O)(O)CO[C@H](CO)Cn1ccc(N)nc1=O [ODE-CDV]
- body weight Day 6 ([21]; 20 mg/kg/day oral gavage daily for 5 days): 16.96 ± 1.38 (6)
- body weight Day 0 ([21]; 20 mg/kg/day oral gavage): 19.88 ± 0.55 (6)
- lost % of body weight ([21]; 20 mg/kg/day): 14.7%

Structure (SMILES): CCCCCCCCCCCCCCCCCCOCCOP(=O)(O)COCCn1cnc2c(=O)[nH]c(N)nc21 [ODE-PMEG, octadecyloxyethyl 9-[2-(phosphonomethoxy)ethyl]guanine]
- body weight Day 6 ([21]; 4 mg/kg/day oral gavage daily for 5 days): 15.5 ± 0.514 (3)
- body weight Day 0 ([21]; 4 mg/kg/day oral gavage): 19.17 ± 0.581 (3)
- lost % of body weight ([21]; 4 mg/kg/day): 19.1%
